Measurements as given in ChEMBL document CHEMBL2331452, “3D-QSAR studies of 1,2-diaryl-1H-benzimidazole derivatives as JNK3 inhibitors with protective effects in neuronal cells” (Bioorg Med Chem Lett, 2013).

Biological target: Mitogen-activated protein kinase 10 (Homo sapiens, UniProt P53779)
Test: Binding affinity to JNK3 (unknown origin) by surface plasmon resonance analysis in presence of ATP

Sequence of Mitogen-activated protein kinase 10 (P53779 whole entry): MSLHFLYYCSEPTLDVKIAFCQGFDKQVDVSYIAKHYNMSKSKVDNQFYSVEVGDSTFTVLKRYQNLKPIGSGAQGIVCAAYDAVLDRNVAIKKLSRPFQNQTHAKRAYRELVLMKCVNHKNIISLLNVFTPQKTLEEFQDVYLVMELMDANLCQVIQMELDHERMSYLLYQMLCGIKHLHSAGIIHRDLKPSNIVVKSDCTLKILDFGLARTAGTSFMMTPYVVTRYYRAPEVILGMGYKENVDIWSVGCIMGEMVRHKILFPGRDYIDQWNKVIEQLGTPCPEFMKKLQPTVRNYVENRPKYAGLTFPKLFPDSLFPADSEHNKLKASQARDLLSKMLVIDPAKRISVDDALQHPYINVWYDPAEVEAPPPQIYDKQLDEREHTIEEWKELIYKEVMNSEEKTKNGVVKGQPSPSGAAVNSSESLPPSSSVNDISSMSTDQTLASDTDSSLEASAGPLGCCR

| Structure (SMILES) | Kd (read-out: Kd) [µM] | Kd (read-out: pKd (converted)) [µM] |
| --- | --- | --- |
| Oc1ccc2c(c1)nc(-c1ccc3ccccc3c1)n2-c1ccnc(NC2CCOCC2)n1 | 1.66 | 1.66 |
| Oc1ccc2nc(-c3ccc4ccccc4c3)n(-c3ccnc(NC4CCOCC4)n3)c2c1 | 6 | 6.03 |
| O=C(C1CC1)N1CCC[C@@H](Nc2nccc(-n3c(-c4ccc5ccccc5c4)nc4cc(O)ccc43)n2)C1 | 2.65 | 2.63 |
| c1ccc2cc(-c3nc4ccccc4n3-c3ccnc(NC4CCCCC4)c3)ccc2c1 | 5.26 | 5.25 |
| c1ccc2cc(-c3nc4ccccc4n3-c3ccnc(NC4CCOCC4)c3)ccc2c1 | 4.65 | 4.68 |
| C[C@H](O)CNc1cc(-n2c(-c3ccc4ccccc4c3)nc3ccccc32)ccn1 | 12.7 | 12.6 |
| COc1ccc2c(c1)nc(-c1ccc3ccccc3c1)n2-c1ccnc(NC2CCCCC2)c1 | 176 | 178 |
| COc1ccc2c(c1)nc(-c1ccc(Cl)c(Cl)c1)n2-c1ccnc(NC2CCCCC2)c1 | 18.1 | 18.2 |
| O=C(C1CC1)N1CCC[C@@H](Nc2cc(-n3c(-c4ccc5ccccc5c4)nc4ccccc43)ccn2)C1 | 10.7 | 10.7 |
| Oc1ccc2c(c1)nc(-c1ccc3ccccc3c1)n2-c1ccnc(NC2CCCCC2)c1 | 24.5 | 24.5 |
| Oc1ccc2c(c1)nc(-c1ccc3ccccc3c1)n2-c1ccnc(NC2CCOCC2)c1 | 10 | 10 |
| Oc1ccc2c(c1)nc(-c1ccc3ccccc3c1)n2-c1ccnc(N[C@@H]2CCCNC2)c1 | 6.05 | 6.03 |
| O=C(C1CC1)N1CCC[C@@H](Nc2cc(-n3c(-c4ccc5ccccc5c4)nc4cc(O)ccc43)ccn2)C1 | 27.7 | 27.5 |
| O=C(C1CC1)N1CCC[C@@H](Nc2cc(-n3c(-c4cccc(O)c4)nc4ccccc43)ccn2)C1 | 2.64 | 2.63 |
| C[C@H](O)CNc1cc(-n2c(-c3cccc(O)c3)nc3ccccc32)ccn1 | 19.1 | 19.1 |
| Oc1ccc2c(c1)nc(-c1ccc(Cl)c(Cl)c1)n2-c1ccnc(NC2CCCCC2)c1 | 13.8 | 13.8 |
| c1ccc2cc(-c3nc4ccccc4n3-c3ccnc(NC4CCCCC4)n3)ccc2c1 | 1.75 | 1.74 |
| c1ccc2cc(-c3nc4ccccc4n3-c3ccnc(NC4CCOCC4)n3)ccc2c1 | 2.33 | 2.34 |
| COc1ccc2c(c1)nc(-c1ccc3ccccc3c1)n2-c1ccnc(NC2CCCCC2)n1 | 0.743 | 0.741 |
| COc1ccc2nc(-c3ccc4ccccc4c3)n(-c3ccnc(NC4CCCCC4)n3)c2c1 | 1.77 | 1.74 |
| Clc1ccc(-c2nc3ccccc3n2-c2ccnc(NC3CCOCC3)n2)cc1Cl | 21.8 | 21.9 |
| c1ccc2cc(-c3nc4ccccc4n3-c3ccnc(N[C@@H]4CCCNC4)n3)ccc2c1 | 2.98 | 2.95 |
| O=C(C1CC1)N1CCC[C@@H](Nc2nccc(-n3c(-c4ccc5ccccc5c4)nc4ccccc43)n2)C1 | 1.93 | 1.95 |
| COc1ccc2c(c1)nc(-c1ccc3ccccc3c1)n2-c1ccnc(N[C@@H]2CCCN(C(=O)C3CC3)C2)n1 | 2.91 | 2.88 |
| COc1ccc2nc(-c3ccc4ccccc4c3)n(-c3ccnc(N[C@@H]4CCCN(C(=O)C5CC5)C4)n3)c2c1 | 1.17 | 1.17 |
| O=C(C1CC1)N1CCC[C@@H](Nc2nccc(-n3c(-c4ccc(Cl)c(Cl)c4)nc4ccccc43)n2)C1 | 7.69 | 7.76 |
| Oc1ccc2c(c1)nc(-c1ccc3ccccc3c1)n2-c1ccnc(NC2CCCCC2)n1 | 1.89 | 1.91 |
| Oc1ccc2nc(-c3ccc4ccccc4c3)n(-c3ccnc(NC4CCCCC4)n3)c2c1 | 31.7 | 31.6 |
